{"source": "patent US7595395B2", "about": "“Gabaergic agents to treat memory deficits” (priority 2005, dated 2009)", "key": {"α1β3γ2 GABAA receptor": {"molecular_target": "α1β3γ2 GABAA receptor (Rattus norvegicus, UniProt P18508+P62813)", "sequence (P62813 28-455)": "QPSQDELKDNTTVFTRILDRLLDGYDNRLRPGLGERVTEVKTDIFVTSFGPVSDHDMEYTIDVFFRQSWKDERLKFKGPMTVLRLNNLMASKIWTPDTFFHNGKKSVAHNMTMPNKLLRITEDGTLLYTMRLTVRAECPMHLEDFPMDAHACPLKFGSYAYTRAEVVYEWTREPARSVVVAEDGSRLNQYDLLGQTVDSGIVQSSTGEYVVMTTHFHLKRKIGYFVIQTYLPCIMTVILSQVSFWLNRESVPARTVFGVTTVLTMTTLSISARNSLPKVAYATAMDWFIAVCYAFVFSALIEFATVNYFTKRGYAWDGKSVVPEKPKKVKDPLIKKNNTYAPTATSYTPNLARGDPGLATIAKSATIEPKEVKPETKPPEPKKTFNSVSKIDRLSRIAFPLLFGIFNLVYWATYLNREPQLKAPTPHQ", "sequence (P63079 26-473 partner)": "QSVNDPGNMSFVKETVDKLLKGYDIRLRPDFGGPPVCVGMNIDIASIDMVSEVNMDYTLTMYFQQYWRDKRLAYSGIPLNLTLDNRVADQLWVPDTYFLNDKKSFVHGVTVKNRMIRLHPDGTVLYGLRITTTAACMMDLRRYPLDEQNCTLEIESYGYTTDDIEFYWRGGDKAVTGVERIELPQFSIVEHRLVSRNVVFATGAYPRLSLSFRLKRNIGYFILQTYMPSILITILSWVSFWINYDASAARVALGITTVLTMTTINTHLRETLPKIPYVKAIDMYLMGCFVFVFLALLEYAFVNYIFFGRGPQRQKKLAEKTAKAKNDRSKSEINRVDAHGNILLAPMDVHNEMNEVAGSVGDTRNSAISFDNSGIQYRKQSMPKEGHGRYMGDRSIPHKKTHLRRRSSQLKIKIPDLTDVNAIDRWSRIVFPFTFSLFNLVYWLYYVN", "sequence (P18508 39-466)": "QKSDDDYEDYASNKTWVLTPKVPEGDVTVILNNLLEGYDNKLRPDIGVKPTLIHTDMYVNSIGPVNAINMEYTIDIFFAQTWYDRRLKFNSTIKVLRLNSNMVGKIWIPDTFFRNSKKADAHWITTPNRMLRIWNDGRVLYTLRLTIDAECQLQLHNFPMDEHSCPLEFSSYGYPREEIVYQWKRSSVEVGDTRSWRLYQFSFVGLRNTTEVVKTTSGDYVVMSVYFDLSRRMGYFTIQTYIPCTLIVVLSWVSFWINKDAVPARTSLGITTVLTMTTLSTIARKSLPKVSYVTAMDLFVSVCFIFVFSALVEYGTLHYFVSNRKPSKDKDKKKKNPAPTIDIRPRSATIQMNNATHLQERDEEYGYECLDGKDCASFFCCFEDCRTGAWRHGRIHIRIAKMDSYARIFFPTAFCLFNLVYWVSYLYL", "test": "Two-electrode voltage clamp in Xenopus oocytes, α1β3γ2", "conditions": "oocytes"}, "C57B1/6 mice": {"system": "C57B1/6 mice", "test": "Pavlovian fear conditioning, contextual memory, scopolamine impairment", "format": "in vivo", "conditions": "for fear conditioned contextual memory, impairment by scopolamine (in words): 10 mg/kg compound, 1 mg/kg scopolamine, mouse; for reversal of scopolamine induced memory deficits (in words): mice, dose not stated", "protocol": "Because the hippocampus is involved in the regulation of events underlying learning and memory, α5 subtype selective agents were evaluated for their ability to modulate hippocampal-dependent and hippocampal-independent forms of memory using Pavlovian fear conditioning paradigms with mice or rats. The protocols for these studies were reported in references Bailey, D. J., Tetzlaff, J. E., Cook, J. M., He, X. H. and Helmstetter, F. J., “Effects of Hippocampal Injections of A Novel Ligand Selective for the Alpha 5 Beta 2 Gamma 2 Subunits of the GABA/Benzodiazepine Receptor on Pavlovian Conditioning,” Neurobiol. Learn. Mem., 78, 1-10 (2002); Delorey, T. M., Lin, R. C., Mcbrady, B., He, X. H., Cook, J. M., Lameh, J. and Loew, G. H., “Influence of Benzodiazepine Binding Site Ligands on Fear-Conditioned Contextual Memory,” Eur. J. Pharmacol., 426, 45-54 (2001).\nFurther, animal data for FIGS. 22-26 were obtained using experimental methodologies described in a previously published reference, Influence of benzodiazepine binding site ligands on fear-conditioned contextual memory European journal of Pharmacology, Volume 426, Issues 1-2, 24 Aug. 2001, Pages 45-54, Timothy M. DeLorey, Richard C. Lin, Brian McBrady, Xiaohui He, James M. Cook, Jelveh Lameh and Gilda H. Loew, which is incorporated by reference as if fully set forth here in its entirety. Selected sections of the reference are provided below:\nMale C57B1/6 mice were obtained from Charles Rivers Laboratories (Holister, Calif.) at 6 weeks of age. Mice used in fear conditioning were between 7 and 12 weeks of age. Animals were housed eight to a cage in rooms with a normal 12-h light/12-h dark cycle (lights on 700-1900 h) with free access to food and water. Tests were conducted during the light phase between 1300 and 1700 h with a 20-min acclimation period in the testing room prior to drug or vehicle administration. All animal protocols used in this study conform to the guidelines determined by the National Institute of Health (USA) Office for Protection from Research Risks and are approved by the Animal Care and Use Committee of the Palo Alto Veterans Administration Medical Center, Palo, Alto, Calif. (USA).\nBefore testing each day, the mice were moved to a holding room and allowed to acclimate for at least 30 min. Each mouse received an i.p. injection of one of the following: vehicle, benzodiazepine binding site ligand (2-30 mg/kg), scopolamine (1 mg/kg), methylscopolamine (1 mg/kg) or scopolamine (1 mg/kg) combined with one of the benzodiazepine binding site ligands (2-30 mg/kg). The dose level chosen for each compound was one that neither elicited convulsions nor impaired locomotion. Twenty minutes after injection, the mice were placed individually in one of four identical experimental chambers (Med Associates, St. Albans, Vt.) that had been scented with 0.3% ammonium hydroxide solution before testing. Chambers were back-lit with fluorescent light with a white noise generator providing 70 dB of background noise. […] Twenty-four hours later, contextual memory was assessed by placing the mice back into the freshly rescented (0.3% Ammonium hydroxide) conditioning chambers in which they were trained, for a 4-min test period in the absence of footshock. Conditioned fear to the context was assessed by measuring the freezing response according to the methods of Fanselow and Bolles (1979). […] An observer, blind to the drug(s) used, scored each mouse every 8 s, for a total of 4 min, for presence or absence of freezing. […]"}}}
{"smiles": "CCc1ccc2c(c1)C(=O)N(C)Cc1c(C(=O)OCCCOC(=O)c3ncn4c3CN(C)C(=O)c3cc(CC)ccc3-4)ncn1-2", "note": "[XLi356, 1,3-Bis(8-ethyl-5,6-dihydro-5-methyl-6-oxo-4H-imidazo[1,5a][1,4]benzodiazepine-3-carboxy)propyl diester]", "values": [{"measurement": "efficacy / modulation of GABA elicited currents at α1 (in words)", "setting": "α1β3γ2 GABAA receptor", "result": "no activity"}, {"measurement": "fear conditioned contextual memory, impairment by scopolamine (in words)", "setting": "C57B1/6 mice", "result": "attenuates the impairment of memory"}, {"measurement": "reversal of scopolamine induced memory deficits (in words)", "setting": "C57B1/6 mice; listed as XLi 356", "result": "potently reverse scoploamine induced memory deficiencies"}, {"measurement": "reversal of scopolamine induced memory deficits (in words)", "setting": "C57B1/6 mice; listed as Xli356", "result": "reverse scopolamine induced memory deficits"}]}
{"smiles": "CCOC(=O)c1ncn2c1CN=C(c1ccccc1)c1cc(-c3ccccc3)ccc1-2", "note": "[DM-I-81, Ethyl 8-phenyl-6-phenyl-4H-benzo[f]imidazo[1,5-a][1,4]diazepine-3-carboxylate]", "values": [{"measurement": "efficacy / modulation of GABA elicited currents at α1 (in words)", "setting": "α1β3γ2 GABAA receptor", "result": "very poor efficacy"}]}
{"smiles": "COCc1ncn2c1CN(C)C(=O)c1cc(Cl)ccc1-2", "note": "[PWZ-029, methyl(8-chloro-5,6-dihydro-5-methyl-6-oxo-4H-imidazo[1,5-α][1,4]benzodiazepin-3-yl)methyl ether]", "values": [{"measurement": "fear conditioned contextual memory, impairment by scopolamine (in words)", "setting": "C57B1/6 mice", "result": "attenuation of contextual memory impairment"}, {"measurement": "reversal of scopolamine induced memory deficits (in words)", "setting": "C57B1/6 mice", "result": "reverse scopolamine induced memory deficits"}]}
